Legend:
Assay in all cases: Test C plant response
Assay type in all cases: in vivo
Conditions in all cases: Postemergence, scale 0 to 100
[1] = test system: canarygrass (Phalaris minor)
Procedure, shortened: (§1)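 Visual response scores run from 0 (no effect) to 100 (complete control), assigned 14 days after treatment by comparison with untreated plants. Compounds were applied in a surfactant-containing non-phytotoxic solvent mixture.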

[2] = test system: oilseed rape (Brassica napus)
Procedure, shortened: as §1

[3] = test system: winter wheat (Triticum aestivum)
Procedure, shortened: as §1

[4] = test system: deadnettle (henbit deadnettle, Lamium amplexicaule)
Procedure, shortened: as §1

[5] = test system: field poppy (Papaver rhoeas)
Procedure, shortened: as §1

[6] = test system: winter barley (Hordeum vulgare)
Procedure, shortened: as §1

[7] = test system: lambsquarters (Chenopodium album)
Procedure, shortened: as §1

kochia (Kochia scoparia) = test system: kochia (Kochia scoparia)
Procedure, shortened: as §1

[8] = test system: pigweed (Amaranthus retroflexus)
Procedure, shortened: as §1

wild oat (Avena fatua) = test system: wild oat (Avena fatua)
Procedure, shortened: as §1

[9] = test system: bromegrass (downy bromegrass, Bromus tectorum)
Procedure, shortened: as §1

[10] = test system: wild mustard (Sinapis arvensis)
Procedure, shortened: as §1

[11] = test system: buckwheat (wild buckwheat, Polygonum convolvulus)
Procedure, shortened: as §1

[12] = test system: blackgrass (Alopecurus myosuroides)
Procedure, shortened: as §1

[13] = test system: Italian ryegrass (Lolium multiflorum)
Procedure, shortened: as §1

[14] = test system: wild radish (Raphanus raphanistrum)
Procedure, shortened: as §1

[15] = test system: chickweed (common chickweed, Stellaria media)
Procedure, shortened: as §1

[16] = test system: bluegrass (annual bluegrass, Poa annua)
Procedure, shortened: as §1

[17] = test system: spring barley (Hordeum vulgare)
Procedure, shortened: as §1

[18] = test system: green foxtail (Setaria viridis)
Procedure, shortened: as §1

[19] = test system: galium (catchweed bedstraw, Galium aparine)
Procedure, shortened: as §1

[20] = test system: Russian thistle (Salsola iberica)
Procedure, shortened: as §1

[21] = test system: spring wheat (Triticum aestivum)
Procedure, shortened: as §1

[22] = test system: windgrass (Apera spica-venti)
Procedure, shortened: as §1

## 3-cyclohexyl-5-[(2-hydroxy-6-oxo-1-cyclohexen-1-yl)carbonyl]-2-phenyl-4(3H)-pyrimidinone [Compound 128]
[1]; 31 g ai/ha
  Plant response rating: Canarygrass: 5
[1]; 16 g ai/ha
  Plant response rating: Canarygrass: 5
[1]; 62 g ai/ha
  Plant response rating: Canarygrass: 10
[1]; 125 g ai/ha
  Plant response rating: Canarygrass: 10
[2]; 31 g ai/ha
  Plant response rating: Oilseed Rape: 95
[2]; 16 g ai/ha
  Plant response rating: Oilseed Rape: 90
[2]; 62 g ai/ha
  Plant response rating: Oilseed Rape: 98
[2]; 125 g ai/ha
  Plant response rating: Oilseed Rape: 100
[3]; 31 g ai/ha
  Plant response rating: Wheat, Winter: 30
[3]; 16 g ai/ha
  Plant response rating: Wheat, Winter: 0
[3]; 62 g ai/ha
  Plant response rating: Wheat, Winter: 30
[3]; 125 g ai/ha
  Plant response rating: Wheat, Winter: 35
[4]; 31 g ai/ha
  Plant response rating: Deadnettle: 98
[4]; 16 g ai/ha
  Plant response rating: Deadnettle: 95
[4]; 62 g ai/ha
  Plant response rating: Deadnettle: 100
[4]; 125 g ai/ha
  Plant response rating: Deadnettle: 100
[5]; 31 g ai/ha
  Plant response rating: Field Poppy: 30
[5]; 16 g ai/ha
  Plant response rating: Field Poppy: 20
[5]; 62 g ai/ha
  Plant response rating: Field Poppy: 40
[5]; 125 g ai/ha
  Plant response rating: Field Poppy: 70
[6]; 31 g ai/ha
  Plant response rating: Barley, Winter: 20
[6]; 16 g ai/ha
  Plant response rating: Barley, Winter: 0
[6]; 62 g ai/ha
  Plant response rating: Barley, Winter: 40
[6]; 125 g ai/ha
  Plant response rating: Barley, Winter: 60
[7]; 31 g ai/ha
  Plant response rating: Lambsquarters: 98
[7]; 16 g ai/ha
  Plant response rating: Lambsquarters: 98
[7]; 62 g ai/ha
  Plant response rating: Lambsquarters: 98
[7]; 125 g ai/ha
  Plant response rating: Lambsquarters: 100
Kochia (Kochia scoparia); 31 g ai/ha
  Plant response rating: Kochia: 90
Kochia (Kochia scoparia); 16 g ai/ha
  Plant response rating: Kochia: 70
Kochia (Kochia scoparia); 62 g ai/ha
  Plant response rating: Kochia: 95
Kochia (Kochia scoparia); 125 g ai/ha
  Plant response rating: Kochia: 98
[8]; 31 g ai/ha
  Plant response rating: Pigweed: 95
[8]; 16 g ai/ha
  Plant response rating: Pigweed: 75
[8]; 62 g ai/ha
  Plant response rating: Pigweed: 95
[8]; 125 g ai/ha
  Plant response rating: Pigweed: 98
Wild oat (Avena fatua); 31 g ai/ha
  Plant response rating: Oat, Wild: 25
Wild oat (Avena fatua); 62 g ai/ha
  Plant response rating: Oat, Wild: 50
Wild oat (Avena fatua); 125 g ai/ha
  Plant response rating: Oat, Wild: 70
[9]; 31 g ai/ha
  Plant response rating: Bromegrass, Downy: 50
[9]; 16 g ai/ha
  Plant response rating: Bromegrass, Downy: 30
[9]; 62 g ai/ha
  Plant response rating: Bromegrass, Downy: 65
[9]; 125 g ai/ha
  Plant response rating: Bromegrass, Downy: 65
[10]; 31 g ai/ha
  Plant response rating: Mustard, Wild: 98
[10]; 16 g ai/ha
  Plant response rating: Mustard, Wild: 98
[10]; 62 g ai/ha
  Plant response rating: Mustard, Wild: 98
[10]; 125 g ai/ha
  Plant response rating: Mustard, Wild: 100
[11]; 31 g ai/ha
  Plant response rating: Buckwheat, Wild: 70
[11]; 16 g ai/ha
  Plant response rating: Buckwheat, Wild: 65
[11]; 62 g ai/ha
  Plant response rating: Buckwheat, Wild: 80
[11]; 125 g ai/ha
  Plant response rating: Buckwheat, Wild: 80
[12]; 31 g ai/ha
  Plant response rating: Blackgrass: 20
[12]; 16 g ai/ha
  Plant response rating: Blackgrass: 20
[12]; 62 g ai/ha
  Plant response rating: Blackgrass: 35
[12]; 125 g ai/ha
  Plant response rating: Blackgrass: 35
[13]; 31 g ai/ha
  Plant response rating: Ryegrass, Italian: 5
[13]; 16 g ai/ha
  Plant response rating: Ryegrass, Italian: 0
[13]; 62 g ai/ha
  Plant response rating: Ryegrass, Italian: 30
[13]; 125 g ai/ha
  Plant response rating: Ryegrass, Italian: 30
[14]; 31 g ai/ha
  Plant response rating: Radish, Wild: 95
[14]; 16 g ai/ha
  Plant response rating: Radish, Wild: 95
[14]; 62 g ai/ha
  Plant response rating: Radish, Wild: 95
[14]; 125 g ai/ha
  Plant response rating: Radish, Wild: 95
[15]; 31 g ai/ha
  Plant response rating: Chickweed: 95
[15]; 16 g ai/ha
  Plant response rating: Chickweed: 95
[15]; 62 g ai/ha
  Plant response rating: Chickweed: 98
[15]; 125 g ai/ha
  Plant response rating: Chickweed: 100
[16]; 31 g ai/ha
  Plant response rating: Bluegrass: 35
[16]; 62 g ai/ha
  Plant response rating: Bluegrass: 65
[16]; 125 g ai/ha
  Plant response rating: Bluegrass: 80
[17]; 31 g ai/ha
  Plant response rating: Barley, Spring: 15
[17]; 16 g ai/ha
  Plant response rating: Barley, Spring: 0
[17]; 62 g ai/ha
  Plant response rating: Barley, Spring: 20
[17]; 125 g ai/ha
  Plant response rating: Barley, Spring: 30
[18]; 31 g ai/ha
  Plant response rating: Foxtail, Green: 95
[18]; 16 g ai/ha
  Plant response rating: Foxtail, Green: 95
[18]; 62 g ai/ha
  Plant response rating: Foxtail, Green: 95
[18]; 125 g ai/ha
  Plant response rating: Foxtail, Green: 95
[19]; 31 g ai/ha
  Plant response rating: Galium: 30
[19]; 16 g ai/ha
  Plant response rating: Galium: 20
[19]; 62 g ai/ha
  Plant response rating: Galium: 65
[19]; 125 g ai/ha
  Plant response rating: Galium: 65
[20]; 31 g ai/ha
  Plant response rating: Russian Thistle: 80
[20]; 16 g ai/ha
  Plant response rating: Russian Thistle: 80
[20]; 62 g ai/ha
  Plant response rating: Russian Thistle: 95
[20]; 125 g ai/ha
  Plant response rating: Russian Thistle: 95
[21]; 31 g ai/ha
  Plant response rating: Wheat, Spring: 20
[21]; 16 g ai/ha
  Plant response rating: Wheat, Spring: 5
[21]; 62 g ai/ha
  Plant response rating: Wheat, Spring: 35
[21]; 125 g ai/ha
  Plant response rating: Wheat, Spring: 40
[22]; 31 g ai/ha
  Plant response rating: Windgrass: 70
[22]; 16 g ai/ha
  Plant response rating: Windgrass: 60
[22]; 62 g ai/ha
  Plant response rating: Windgrass: 85
[22]; 125 g ai/ha
  Plant response rating: Windgrass: 95

## COc1ccc(-n2c(-c3ccccc3)ncc(C(=O)C3=C(O)CCCC3=O)c2=O)cc1 [Compound 4, 5-[(2-hydroxy-6-oxo-cyclohexen-1-yl)carbonyl]-3-(4-methoxyphenyl)-2-phenyl-4(3H)-pyrimidinone]
[1]; 31 g ai/ha
  Plant response rating: Canarygrass: 0
[1]; 125 g ai/ha
  Plant response rating: Canarygrass: 90
[2]; 31 g ai/ha
  Plant response rating: Oilseed Rape: 90
[2]; 125 g ai/ha
  Plant response rating: Oilseed Rape: 100
[3]; 31 g ai/ha
  Plant response rating: Wheat, Winter: 0
[3]; 125 g ai/ha
  Plant response rating: Wheat, Winter: 20
[4]; 31 g ai/ha
  Plant response rating: Deadnettle: 98
[4]; 125 g ai/ha
  Plant response rating: Deadnettle: 100
[5]; 31 g ai/ha
  Plant response rating: Field Poppy: 30
[5]; 125 g ai/ha
  Plant response rating: Field Poppy: 50
[6]; 31 g ai/ha
  Plant response rating: Barley, Winter: 5
[6]; 125 g ai/ha
  Plant response rating: Barley, Winter: 35
[7]; 31 g ai/ha
  Plant response rating: Lambsquarters: 100
[7]; 125 g ai/ha
  Plant response rating: Lambsquarters: 100
Kochia (Kochia scoparia); 31 g ai/ha
  Plant response rating: Kochia: 90
Kochia (Kochia scoparia); 125 g ai/ha
  Plant response rating: Kochia: 95
[8]; 31 g ai/ha
  Plant response rating: Pigweed: 95
[8]; 125 g ai/ha
  Plant response rating: Pigweed: 100
Wild oat (Avena fatua); 31 g ai/ha
  Plant response rating: Oat, Wild: 20
Wild oat (Avena fatua); 125 g ai/ha
  Plant response rating: Oat, Wild: 50
[9]; 31 g ai/ha
  Plant response rating: Bromegrass, Downy: 35
[9]; 125 g ai/ha
  Plant response rating: Bromegrass, Downy: 40
[10]; 31 g ai/ha
  Plant response rating: Mustard, Wild: 98
[10]; 125 g ai/ha
  Plant response rating: Mustard, Wild: 100
[11]; 31 g ai/ha
  Plant response rating: Buckwheat, Wild: 95
[11]; 125 g ai/ha
  Plant response rating: Buckwheat, Wild: 100
[12]; 31 g ai/ha
  Plant response rating: Blackgrass: 20
[12]; 125 g ai/ha
  Plant response rating: Blackgrass: 40
[13]; 31 g ai/ha
  Plant response rating: Ryegrass, Italian: 10
[13]; 125 g ai/ha
  Plant response rating: Ryegrass, Italian: 15
[14]; 31 g ai/ha
  Plant response rating: Radish, Wild: 80
[14]; 125 g ai/ha
  Plant response rating: Radish, Wild: 95
[15]; 31 g ai/ha
  Plant response rating: Chickweed: 98
[15]; 125 g ai/ha
  Plant response rating: Chickweed: 100
[16]; 31 g ai/ha
  Plant response rating: Bluegrass: 35
[16]; 125 g ai/ha
  Plant response rating: Bluegrass: 50
[17]; 31 g ai/ha
  Plant response rating: Barley, Spring: 10
[17]; 125 g ai/ha
  Plant response rating: Barley, Spring: 15
[18]; 31 g ai/ha
  Plant response rating: Foxtail, Green: 70
[18]; 125 g ai/ha
  Plant response rating: Foxtail, Green: 95
[19]; 31 g ai/ha
  Plant response rating: Galium: 65
[19]; 125 g ai/ha
  Plant response rating: Galium: 90
[20]; 31 g ai/ha
  Plant response rating: Russian Thistle: 70
[20]; 125 g ai/ha
  Plant response rating: Russian Thistle: 95
[21]; 31 g ai/ha
  Plant response rating: Wheat, Spring: 15
[21]; 125 g ai/ha
  Plant response rating: Wheat, Spring: 20
[22]; 31 g ai/ha
  Plant response rating: Windgrass: 35
[22]; 125 g ai/ha
  Plant response rating: Windgrass: 95
